Assay results published in patent US12180207B2 (ARRAY BIOPHARMA INC., priority 2018, dated 2024).

Columns and labels:
[1] = molecular target: dephosphorylated FGFR1 (SEQ ID NO: 1, amino acids 458 to 765) (Homo sapiens (Human), UniProt P11362); assay: FGFR enzyme binding assay (HTRF tracer displacement), FGFR1; settings: 5 nM dephosphorylated FGFR1, average of multiple determinations if made
Method in brief: (§1)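 Kinase and tracer were incubated with compound for 60 minutes at 22° C. Tracer displacement was then measured by HTRF, and results were expressed as POC with 1 μM control inhibitor defining full displacement.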

[2] = molecular target: T1, HEK-293 cells transfected with dox-inducible human wild type FGFR3 (Homo sapiens (Human), UniProt P22607); assay: FGFR3 pFGFR cell assay (ELISA); format: cell-based; settings: HEK-293 dox-inducible FGFR3, 1 hour compound, 100 ng/ml FGF-acidic
T1 sequence (P22607 23-806): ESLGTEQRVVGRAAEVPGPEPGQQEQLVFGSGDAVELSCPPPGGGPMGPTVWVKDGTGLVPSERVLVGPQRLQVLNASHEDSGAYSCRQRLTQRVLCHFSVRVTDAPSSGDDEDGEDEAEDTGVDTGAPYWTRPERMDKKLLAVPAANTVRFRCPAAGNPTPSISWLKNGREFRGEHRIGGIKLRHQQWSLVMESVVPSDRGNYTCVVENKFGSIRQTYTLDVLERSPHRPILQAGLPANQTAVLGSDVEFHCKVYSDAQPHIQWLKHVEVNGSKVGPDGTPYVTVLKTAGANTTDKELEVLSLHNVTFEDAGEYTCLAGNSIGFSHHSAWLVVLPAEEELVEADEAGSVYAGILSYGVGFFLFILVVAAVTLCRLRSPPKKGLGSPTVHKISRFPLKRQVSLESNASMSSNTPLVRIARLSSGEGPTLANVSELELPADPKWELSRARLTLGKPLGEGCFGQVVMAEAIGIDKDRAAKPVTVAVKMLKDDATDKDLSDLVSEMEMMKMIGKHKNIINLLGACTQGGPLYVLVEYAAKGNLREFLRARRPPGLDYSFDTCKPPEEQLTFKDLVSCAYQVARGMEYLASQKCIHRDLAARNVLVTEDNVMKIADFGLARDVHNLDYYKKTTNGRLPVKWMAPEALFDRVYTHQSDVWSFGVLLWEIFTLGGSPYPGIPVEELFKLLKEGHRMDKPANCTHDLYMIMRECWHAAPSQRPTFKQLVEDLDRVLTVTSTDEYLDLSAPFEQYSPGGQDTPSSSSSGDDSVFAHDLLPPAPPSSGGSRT
Method in brief: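 Doxycycline-induced (1 μg/ml) HEK-293 cells expressing wild-type human FGFR3, treated 1 h with compound (1:3 series, top final 5 μM), then stimulated 5 min with 100 ng/ml FGF-acidic. Phospho-FGFR3 measured by ELISA (total FGFR3 capture, phosphotyrosine detection, OD 450 nm); IC50 from 4-parameter fit of POC values.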

[3] = molecular target: phosphorylated FGFR3 (SEQ ID NO: 5, amino acids 449 to 759) (Homo sapiens (Human), UniProt P22607); assay: FGFR enzyme binding assay (HTRF tracer displacement), FGFR3; settings: 5 nM phosphorylated FGFR3, average of multiple determinations if made
Sequence of phosphorylated FGFR3 (SEQ ID NO: 5, amino acids 449 to 759) (P22607 449-759): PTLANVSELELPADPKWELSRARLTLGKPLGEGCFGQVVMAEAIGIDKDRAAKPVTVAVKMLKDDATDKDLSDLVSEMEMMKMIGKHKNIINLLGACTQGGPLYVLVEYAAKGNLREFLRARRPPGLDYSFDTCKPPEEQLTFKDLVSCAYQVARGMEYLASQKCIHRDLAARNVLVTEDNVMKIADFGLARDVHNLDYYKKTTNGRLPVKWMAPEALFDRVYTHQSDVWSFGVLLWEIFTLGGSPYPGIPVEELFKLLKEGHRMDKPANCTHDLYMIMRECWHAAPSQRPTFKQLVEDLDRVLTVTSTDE
Method in brief: as §1

[4] = molecular target: HEK-293 cells transfected with dox-inducible human wild type FGFR1 (Homo sapiens (Human), UniProt P11362); assay: FGFR1 pERK cell assay; format: cell-based; settings: HEK-293 dox-inducible FGFR1, 1 hour compound, 100 ng/ml FGF-acidic; maximum concentration 5 μM
Sequence of HEK-293 cells transfected with dox-inducible human wild type FGFR1 (P11362 22-822): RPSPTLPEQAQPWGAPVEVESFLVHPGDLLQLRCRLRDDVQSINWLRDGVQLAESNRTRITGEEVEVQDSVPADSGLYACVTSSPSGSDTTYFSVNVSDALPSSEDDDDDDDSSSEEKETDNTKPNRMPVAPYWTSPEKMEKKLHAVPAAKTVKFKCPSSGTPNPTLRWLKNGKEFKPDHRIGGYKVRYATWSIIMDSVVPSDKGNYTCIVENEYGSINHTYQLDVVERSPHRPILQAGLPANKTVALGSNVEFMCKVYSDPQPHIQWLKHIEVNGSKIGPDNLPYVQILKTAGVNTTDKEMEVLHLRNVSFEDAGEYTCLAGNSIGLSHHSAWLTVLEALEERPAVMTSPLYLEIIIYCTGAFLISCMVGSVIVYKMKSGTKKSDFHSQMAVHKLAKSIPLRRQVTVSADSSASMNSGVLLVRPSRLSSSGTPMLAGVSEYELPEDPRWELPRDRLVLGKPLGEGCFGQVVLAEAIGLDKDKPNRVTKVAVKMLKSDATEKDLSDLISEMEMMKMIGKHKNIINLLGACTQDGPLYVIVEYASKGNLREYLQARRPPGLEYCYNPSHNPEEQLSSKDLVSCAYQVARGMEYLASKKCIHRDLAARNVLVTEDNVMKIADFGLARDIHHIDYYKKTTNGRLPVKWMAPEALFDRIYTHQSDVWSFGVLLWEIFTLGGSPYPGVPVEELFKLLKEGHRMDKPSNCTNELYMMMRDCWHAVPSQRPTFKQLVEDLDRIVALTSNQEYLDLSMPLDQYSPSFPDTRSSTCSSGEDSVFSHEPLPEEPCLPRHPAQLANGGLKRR
Method in brief: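 In HEK-293 cells with dox-induced human wild-type FGFR1, compounds (1:3 dilutions, top 5 μM final) were applied 1 h at 37°C before 5 min stimulation with 100 ng/ml FGF-acidic. Phospho-ERK1/2 measured by MSD sandwich immunoassay; IC50 from 4-parameter fit of POC versus vehicle and control compound.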

[5] = molecular target: T1, HEK-293 cells transfected with dox-inducible human wild type FGFR3; assay: FGFR3 pERK cell assay; format: cell-based; settings: HEK-293 dox-inducible FGFR3, 1 hour compound, 100 ng/ml FGF-acidic; maximum concentration 5 μM
Method in brief: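 Doxycycline-induced cells preincubated 1 h at 37 °C with compound (1:3 dilutions, top 5 μM final), then stimulated 5 min with 100 ng/ml FGF-acidic. Lysate phospho-ERK1/2 measured by MSD sandwich assay; IC50 at 50 POC from 4-parameter fit, normalised to no-compound and control-compound wells.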

Sequence of dephosphorylated FGFR1 (SEQ ID NO: 1, amino acids 458 to 765) (P11362 458-765): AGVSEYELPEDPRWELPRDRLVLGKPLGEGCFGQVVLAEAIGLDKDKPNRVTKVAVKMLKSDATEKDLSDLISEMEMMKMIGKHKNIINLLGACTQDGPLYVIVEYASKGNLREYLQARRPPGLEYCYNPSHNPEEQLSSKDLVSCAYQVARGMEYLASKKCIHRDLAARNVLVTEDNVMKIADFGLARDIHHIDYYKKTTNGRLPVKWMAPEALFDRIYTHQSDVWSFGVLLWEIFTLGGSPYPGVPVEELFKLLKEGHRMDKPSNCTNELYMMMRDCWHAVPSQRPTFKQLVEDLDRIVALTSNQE

IC50 [1] [µM] | IC50 [2] [µM] | IC50 [3] [µM] | IC50 [4] [µM] | IC50 [5] [µM] | SMILES
0.037 | 0.032 | 0.003 |  |  | C=CS(=O)(=O)N[C@H]1CC[C@H](C(=O)N2CCC(n3cc(-c4cc(OC)c5c(C#N)cnn5c4)cn3)CC2)C1 [Example 190, N-((1S,3S)-3-(4-(4-(3-cyano-4-methoxypyrazolo[1,5-a]pyridin-6-yl)-1H-pyrazol-1-yl)piperidine-1-carbonyl)cyclopentyl)-ethenesulfonamide]
0.186 | 0.117 | 0.06 |  |  | C=CC(=O)N1CC(CN2CC(n3cc(-c4cc(OC)c5c(C#N)cnn5c4)cn3)C2)C1 [Example 81, 6-(1-(1-((1-acryloylazetidin-3-yl)methyl)azetidin-3-yl)-1H-pyrazol-4-yl)-4-methoxypyrazolo[1,5-a]pyridine-3-carbonitrile]
0.409 | 1.9 | 0.055 |  |  | C=CC(=O)N1CC[C@H](C(=O)N2CC(n3cc(-c4cc(OC)c5c(C#N)cnn5c4)cn3)C2)C1 [Example 76, (S)-6-(1-(1-(1-acryloylpyrrolidine-3-carbonyl)azetidin-3-yl)-1H-pyrazol-4-yl)-4-methoxypyrazolo[1,5-a]pyridine-3-carbonitrile]
0.098 | 0.536 | 0.008 |  |  | C=CC(=O)N1CC(C(=O)N2CC(n3cc(-c4cc(OC)c5c(C#N)cnn5c4)cn3)C2)C1 [Example 78, 6-(1-(1-(1-acryloylazetidine-3-carbonyl)azetidin-3-yl)-1H-pyrazol-4-yl)-4-methoxypyrazolo[1,5-a]pyridine-3-carbonitrile]
0.058 | 0.313 | 0.007 |  |  | C=CC(=O)N1CC(C(=O)N2CC[C@H](n3cc(-c4cc(OC)c5c(C#N)cnn5c4)cn3)C2)C1 [Example 73, (S)-6-(1-(1-(1-acryloylazetidine-3-carbonyl)pyrrolidin-3-yl)-1H-pyrazol-4-yl)-4-methoxypyrazolo[1,5-a]pyridine-3-carbonitrile]
0.103 | 0.02 | 0.01 |  |  | C=CS(=O)(=O)N[C@@H]1CC[C@H](C(=O)N2CCC(n3cc(-c4cc(OC)c5c(C#N)cnn5c4)cn3)CC2)C1 [Example 191, N-((1R,3S)-3-(4-(4-(3-cyano-4-methoxypyrazolo[1,5-a]pyridin-6-yl)-1H-pyrazol-1-yl)piperidine-1-carbonyl)cyclopentyl)-ethenesulfonamide]
0.482 |  | 0.04 | 1.91 | 0.174 | C=CC(=O)N1CC(C)(CN2CC(n3ncc(-c4cc(OC)c5c(C#N)cnn5c4)c3C)C2)C1 [Example 93, 6-(1-(1-((1-acryloyl-3-methylazetidin-3-yl)methyl)azetidin-3-yl)-5-methyl-1H-pyrazol-4-yl)-4-methoxypyrazolo[1,5-a]pyridine-3-carbonitrile]
 | 0.057 |  |  |  | C=CC(=O)Nc1ccc(C(=O)N2CCC(n3cc(-c4cc(OC)c5c(C#N)cnn5c4)cn3)CC2)cc1 [Example 177, N-(4-(4-(4-(3-cyano-4-methoxypyrazolo[1,5-a]pyridin-6-yl)-1H-pyrazol-1-yl)piperidine-1-carbonyl)phenyl)acrylamide]
0.444 |  | 0.049 | 2.53 | 0.205 | C=CC(=O)N1CC(CN2CC(n3ncc(-c4cc(OC)c5c(C#N)cnn5c4)c3C)C2)C1 [Example 92]

Further lines, the molecule ahead of its results:

SMILES | IC50 [1] [µM] | IC50 [2] [µM] | IC50 [3] [µM] | IC50 [4] [µM] | IC50 [5] [µM]
C=CC(=O)Nc1cccc(C(=O)N2CC[C@@H](n3cc(-c4cc(OC)c5c(C#N)cnn5c4)cn3)C2)c1 [Example 56, (R)-N-(3-(3-(4-(3-cyano-4-methoxypyrazolo[1,5-a]pyridin-6-yl)-1H-pyrazol-1-yl)pyrrolidine-1-carbonyl)phenyl)acrylamide] | 0.135 | 0.182 | 0.018 |  | 
C=CC(=O)Nc1ccc(C(=O)N2CC[C@H](n3cc(-c4cc(OC)c5c(C#N)cnn5c4)cn3)C2)c(OC)c1 [Example 69, (S)-N-(4-(3-(4-(3-cyano-4-methoxypyrazolo[1,5-a]pyridin-6-yl)-1H-pyrazol-1-yl)pyrrolidine-1-carbonyl)-3-methoxyphenyl)acrylamide] | 0.077 | 0.311 | 0.011 |  | 
C=CC(=O)Nc1ccc(C(=O)N2CC[C@H](n3cc(-c4cc(OC)c5c(C#N)cnn5c4)cn3)C2)cc1OC [Example 71, (S)-N-(4-(3-(4-(3-cyano-4-methoxypyrazolo[1,5-a]pyridin-6-yl)-1H-pyrazol-1-yl)pyrrolidine-1-carbonyl)-2-methoxyphenyl)acryla72 mide] | 0.147 | 0.035 | 0.018 |  | 
C=CC(=O)Nc1ccc(C(=O)N2CCC[C@@H](n3cc(-c4cc(OC)c5c(C#N)cnn5c4)cn3)C2)cc1 [Example 23, (R)-N-(4-(3-(4-(3-cyano-4-methoxypyrazolo[1,5-a]pyridin-6-yl)-1H-pyrazol-1-yl)piperidine-1-carbonyl)phenyl)acrylamide] | 0.431 | 0.09 | 0.054 |  | 
C=CC(=O)N1CC(C(=O)N2CC[C@@H](n3cc(-c4cc(OC)c5c(C#N)cnn5c4)cn3)C2)C1 [Example 59, (R)-6-(1-(1-(1-acryloylazetidine-3-carbonyl)pyrrolidin-3-yl)-1H-pyrazol-4-yl)-4-methoxypyrazolo[1,5-a]pyridine-3-carbonitrile] | 0.115 | 0.667 | 0.016 |  | 
C=CC(=O)N1CCC(F)(C(=O)N2CCC(n3cc(-c4cc(OC)c5c(C#N)cnn5c4)cn3)CC2)C1 (stereo not drawn) [Example 30, 6-(1-(1-(1-acryloyl-3-fluoropyrrolidine-3-carbonyl)piperidin-4-yl)-1H-pyrazol-4-yl)-4-methoxypyrazolo[1,5-a]pyridine-3-carbonitrile] | 0.051 | 0.023 | 0.005 |  | 
C=CC(=O)N1CC(C)(C(=O)N2CCC(n3cc(-c4cc(OC)c5c(C#N)cnn5c4)cn3)CC2)C1 [Example 38, 6-(1-(1-(1-acryloyl-3-methylazetidine-3-carbonyl)piperidin-4-yl)-1H-pyrazol-4-yl)-4-methoxypyrazolo[1,5-a]pyridine-3-carbonitrile] | 0.033 | 0.009 | 0.002 |  | 
C=CC(=O)N1CCC(C#N)(C(=O)N2CCC(n3cc(-c4cc(OC)c5c(C#N)cnn5c4)cn3)CC2)CC1 [Example 14, 6-(1-(1-(1-acryloyl-4-cyanopiperidine-4-carbonyl)piperidin-4-yl)-1H-pyrazol-4-yl)-4-methoxypyrazolo[1,5-a]pyridine-3-carbonitrile] | 0.084 | 0.025 | 0.007 |  | 
C=CC(=O)N1CC[C@H](C(=O)N2CCC(n3cc(-c4cc(OC)c5c(C#N)cnn5c4)cn3)CC2)C1 [Example 28, (S)-6-(1-(1-(1-acryloylpyrrolidine-3-carbonyl)piperidin-4-yl)-1H-pyrazol-4-yl)-4-methoxypyrazolo[1,5-a]pyridine-3-carbonitrile] | 0.105 | 0.285 | 0.017 |  | 
C=CC(=O)Nc1cccc(C(=O)N2CCC(n3cc(-c4cc(OC)c5c(C#N)cnn5c4)cn3)CC2)c1 [Example 22, N-(3-(4-(4-(3-cyano-4-methoxypyrazolo[1,5-a]pyridin-6-yl)-1H-pyrazol-1-yl)piperidine-1-carbonyl)phenyl)acrylamide] | 0.112 | 0.087 | 0.008 |  | 
C=CC(=O)Nc1ccc(C(=O)N2CC[C@H](n3cc(-c4cc(OC)c5c(C#N)cnn5c4)cn3)C2)c(C)c1 [Example 68, (S)-N-(4-(3-(4-(3-cyano-4-methoxypyrazolo[1,5-a]pyridin-6-yl)-1H-pyrazol-1-yl)pyrrolidine-1-carbonyl)-3-methylphenyl)acrylamide] | 0.094 | 0.187 | 0.013 |  | 
C=CC(=O)Nc1cccc(C(=O)N2CCC[C@@H](n3cc(-c4cc(OC)c5c(C#N)cnn5c4)cn3)C2)c1 [Example 24, (R)-N-(3-(3-(4-(3-cyano-4-methoxypyrazolo[1,5-a]pyridin-6-yl)-1H-pyrazol-1-yl)piperidine-1-carbonyl)phenyl)acrylamide] | 0.31 | 0.435 | 0.069 |  | 
C=CC(=O)Nc1ccccc1C(=O)N1CCC[C@@H](n2cc(-c3cc(OC)c4c(C#N)cnn4c3)cn2)C1 [Example 25, (R)-N-(2-(3-(4-(3-cyano-4-methoxypyrazolo[1,5-a]pyridin-6-yl)-1H-pyrazol-1-yl)piperidine-1-carbonyl)phenyl)acrylamide] | 0.35 | 0.083 | 0.052 |  | 
